Common to all, as to assay type: in vivo
Data set [1] has as its system ApoE^−/− mice. Kind of data set: Aortic valve calcification in ApoE−/− mice on high-fat diet, von Kossa staining (preventive treatment). To be noted: 8 weeks; for calcification / mineralization of aortic valve (von Kossa): treatment in drinking water, vs tap water. The source says:
(§1) All the animal experiments were approved by the guidelines from Directive 2010/63/EU of the European Parliament on the protection of animals used for scientific purposes. Animal experiments performed in this study were approved by the Scientific and Research Ethics Committee of the Scientific Council of Health of the Hungarian Government under the registration number of DE MÁB/157-5/2010 and are reported in accordance with the ARRIVE guidelines. C57BL/6 ApoE^−/− mice (The Jackson Laboratory; B6.129P2 Apoetm1Unc/J; RRID: IMSR_JAX: 002052) were maintained at the University of Debrecen under specific pathogen-free conditions in accordance with guidelines from Institutional Ethical Committee. To induce atherosclerotic plaque formation, standard chow diet was changed to atherogenic diet (15% fat, 1.25% cholesterol, ssniff Spezialdiäten GmbH, Soest, Germany) at the age of 8 weeks. Mice were randomly divided into two groups and parallelly with the atherogenic diet, mice received tap-water or DHEA-derived steroid (100 μg steroid/mouse/day) in tap-water. The DHEA-derived steroid was replaced every day. Aortas were harvested after 8 weeks of treatment. All mice were euthanized by a predictable and controllable administering of slow-fill compressed CO2 asphyxiation. Atherogenic food composition (high-fat diet): Crude Nutrients (%): Crude Protein 19%; crude fat 15.2%; crude fiber 3.4%; crude ash 6.3%; starch 25.6%; sugar 11.2%; Additives (per kg): vitamin A 15,000 IU; vitamin D3 1,000 IU; vitamin E 110 mg; vitamin K3 5 mg; vitamin C 0 mg; copper 13 mg.
(§2) Immunohistochemistry from the aortic root was performed on formalin-fixed, paraffin-embedded tissue sections. 4 μm slides were then deparaffinated using xylol and ethanol. The serial sections were stained with Gill Hematoxylin solution (Merck) followed by eosin counterstaining or with von Kossa. For digital documentation, the stained specimens were scanned with a Mirax Midi scanner (3D Histech, Budapest, Hungary). Macroscopic pictures of the arteries were taken with Nikon D3200 camera (Nikon Corp.; Minato, Tokyo, Japan).

Data set [2] relates to ApoE^−/− mice. The data set is described as follows: Reversal of already formed atherosclerotic lesion in ApoE−/− mice, Oil Red O (therapeutic treatment). The settings on record: for already formed atherosclerotic lesion (plaque size, Oil Red O): atherogenic diet 4 or 6 weeks, then chop diet plus S2 in water for 4 or 8 weeks, vs tap water, sodium salt. An excerpt:
(§3) In the further part of the present work, it was examined whether the compounds of the invention have positive therapeutic effect, too. In the above-mentioned animal model, the present inventors developed during eight weeks real atherosclerosis, and for an additional eight weeks animals were given S2 compound (100 micrograms per day per animal). Control mice got pure drinking water. At the end of experiment the size and number of sclerotic plaques, the calcification of heart valves and the amount of hydrogen sulfide was measured. […] This means the compounds of the invention have not only preventive, but also therapeutic effect.
(§4) Aortas were dissected from the aortic arch to the iliac bifurcation. After that, the fatty tissue was carefully removed under a stereomicroscope (M125; Leica Biosystems Nussloch GmbH). […] 0.07 g ORO powder was dissolved in 25 mL methanol and mixed for 10 min on a magnetic stirrer. Finally, 10 mL 1 mol/L NaOH was added to the ORO solution and filtered it. Images were taken with the camera (Nikon D3200; Nikon Corp., Japan) and whole aorta plaque area was analyzed with ImageJ 1.49 software.
(§5) From a pharmacological point of view to the best of inventors' knowledge, there is no medicine in the market to reverse atherosclerosis and calcification of vessels. Current drugs only slow down the progression of atherosclerosis. Therefore, the present inventors examined the possibility of S2 steroid treatment to reverse the already formed atherosclerotic lesion and calcification. In this experiment the present inventors kept the mice on atherogenic diet for 4 or 6 weeks for development of atherosclerotic lesion and calcification. After that the present inventors changed the atherogenic diet to chop diet and they added S2 steroid to the mice's water for 4 weeks and 8 weeks. Control group got tap water only.

For a further data set, the system named is H2S. The data set is described as follows: Sulfide (H2S) level of mice plasma, zinc precipitation assay.
Source text: as §1
Sulfide levels were measured with zinc precipitation method based upon developed by Gilboa-Garber [Gilboa-Garber N. 1971] and modified by A. D. Ang et al. [Ang A D, et al. 2012]. The human carotid artery was homogenized under liquid nitrogen in 7.4 pH PBS and sonicated it. […] After 10 min the absorbance of the generated methylene blue (MB) was measured with a spectrophotometer at 667 nm. Since during the reaction 1 mol/L MB formed from 1 mol/L sulfide, the concentration was determined by the MB's extinction coefficient (30 200 M 1 cm 1). […]

In data set [3] the test system is ApoE^−/− mice. Kind of data set: Reversal of already formed aortic valve calcification in ApoE−/− mice, von Kossa (therapeutic treatment). The settings on record: for already formed aortic valve extracellular matrix mineralization (von Kossa): high-fat diet 6 weeks, then chop diet plus S2 in tap water for 4 weeks, vs tap water, sodium salt.
Source text: as §3, §2, §5

In data set [4] the test system is ApoE^−/− mice. Kind of data set: Atherosclerotic plaque formation in ApoE−/− mice on atherogenic diet, en face Oil Red O staining of whole aorta (preventive treatment). The settings on record: 100 μg steroid/mouse/day in tap-water, 8 weeks, vs tap water control.
Source text: as §1, §4

For data set [5], the system named is ApoE^−/− mice. Kind of data set: Survival of ApoE−/− mice during treatment. To be noted: atherogenic diet; for survival / mortality of mice / mouse death before the end of the experiment: 8 weeks treatment.
Source text: as §1

Setting [6] is: listed as DHEA-derived steroid, sodium salt.
Where [7] appears, read: listed as DHEA-derived S2 steroid.
Where [8] appears, read: atherosclerosis developed during eight weeks, then 100 micrograms per day per animal for additional eight weeks, vs drinking water.

Values joined by “and” are separate entries in the source; they are usually repeats but may differ in a detail not shown here. Equal values may be shown once. “Also recorded” adds a separate entry of the source.

As to `CCCCCCCCCCCC(=O)OC1CC[C@H]2[C@@H]3CC=C4CC(OS(=O)(=O)[O-])CC[C@]4(C)[C@H]3CC[C@]12C.[Na+]` (some centres unmarked) [S2, 17-lauroyloxy-5-androstene-3-sulphate sodium salt], the “lower mineralized area of aortic valves calcification nodules compared to tap-water mice” value with ApoE^−/− mice [1] (steroid in drinking water) came out at 91.2%. In addition, the “calcification / mineralization of aortic valve (von Kossa)” value (from here on “calcification / mineralization”) in the data set with ApoE^−/− mice [1] (setting [6]) is reported as “decreases the expansion of the extracellular matrix; also recorded: significantly inhibited the development of calcific nodules in aortic valves”. For the same compound, the “already formed atherosclerotic lesion (plaque size, Oil Red O)” value was “reverses atherosclerosis” with ApoE^−/− mice [2] (setting [7]) and “significantly lesser atherosclerotic lesion” with ApoE^−/− mice [2]. For the same compound, the “size and number of sclerotic plaques” value with ApoE^−/− mice [2] (setting [8]) is on record as “significantly less”. Also, the “H2S content of mice plasma” value in the data set on H2S (ApoE−/− mice, steroid treated vs tap-water) is “elevates H2S content of the mice plasma”. Moreover, the “plasma H2S concentration compared to control mice plasma” value in the data set with H2S (ApoE−/− mice, steroid treated vs tap-water, normalized to protein content) is given as “approximately 2.4 times”. The “concentration of hydrogen sulfide” value with H2S (setting [8]) is recorded as “significantly higher”. Further, the “calcification of heart valves” value in the data set on ApoE^−/− mice [3] (setting [8]) was “significantly less”. Moreover, the “already formed aortic valve extracellular matrix mineralization (von Kossa)” value in the data set on ApoE^−/− mice [3] (setting [7]) is “reverses atherosclerosis and aortic valve calcification”; with ApoE^−/− mice [3] it was “significant lesser extracellular matrix mineralization”. The “atherosclerotic plaque formation / area of atherosclerotic lesion (Oil Red O, whole aorta)” value (shortened to “atherosclerotic plaque formation / area”) with ApoE^−/− mice [4] (setting [6]) was “inhibits atherosclerosis; also recorded: significantly lesser area of atherosclerotic lesion”; in the data set on ApoE^−/− mice [4] (sodium salt), “highly efficient both in the prevention and reversal of atherosclerosis”. Besides, the “survival / mortality of mice” value in the data set with ApoE^−/− mice [5] was “survived”.
With `CCCCCC(=O)OC1CC[C@H]2[C@@H]3CC=C4CC(OS(=O)(=O)[O-])CC[C@]4(C)[C@H]3CC[C@]12C.[Na+]` (some centres unmarked) [C6, 17-hexanoyloxy-5-androstene-3-sulfate sodium salt], the “atherosclerotic plaque formation / area” value with ApoE^−/− mice [4] (sodium salt) is given as “fail to inhibit atherosclerosis; also recorded: not Able to Abrogate Atherosclerotic Plaque Formation”. Besides, the “survival / mortality of mice” value in the data set on ApoE^−/− mice [5] is “survived”.
For Dehydroepiandrosterone sulfate [DHEA-S], the “calcification / mineralization” value with ApoE^−/− mice [1] is reported as “cannot decrease the mineralization of extracellular matrix of aortic valve; also recorded: Failed to Prevent Calcification of Aortic Valve”. Further, the “atherosclerotic plaque formation / area” value in the data set on ApoE^−/− mice [4] is “fail to inhibit atherosclerosis; also recorded: not Able to Abrogate Atherosclerotic Plaque Formation”. Besides, the “atherosclerotic plaque formation / area” value in the data set with ApoE^−/− mice [4] (listed as DHEAS) is given as “did not diminish the development of atherosclerosis”. Also, in the data set with ApoE^−/− mice [5], the “day of the treatment regime on which the first treated animal died” value amounted to 55 days; the “mouse death before the end of the experiment” value was 22% and 28.6%; the “survival / mortality of mice” value is on record as “elevated mortality rate of the animals”.
For `C[C@]12CC[C@H](O)CC1=CC[C@@H]1[C@@H]2CC[C@]2(C)C(=O)CC[C@@H]12` [DHEA, Dehydroepiandrosterone], the “calcification / mineralization” value in the data set with ApoE^−/− mice [1] is “cannot decrease the mineralization of extracellular matrix of aortic valve; also recorded: Failed to Prevent Calcification of Aortic Valve”. For the same compound, the “atherosclerotic plaque formation / area” value in the data set with ApoE^−/− mice [4] is “fail to inhibit atherosclerosis; also recorded: did not diminish the development of atherosclerosis; also recorded: not Able to Abrogate Atherosclerotic Plaque Formation”. Besides, in the data set with ApoE^−/− mice [5], the “day of the treatment regime on which the first treated animal died” value was found to be 50 days; the “mouse death before the end of the experiment” value was 45% and 45.5%; the “survival / mortality of mice” value is given as “elevated mortality rate of the animals”.
Consider `CCCCCCCCCCCCCCCC(=O)OC1CC[C@H]2[C@@H]3CC=C4CC(OS(=O)(=O)[O-])CC[C@]4(C)[C@H]3CC[C@]12C.[Na+]` (some centres unmarked) [C16, 17-palmitoyloxy-5-androstene-3-sulfate sodium salt], for which the “atherosclerotic plaque formation / area” value in the data set on ApoE^−/− mice [4] (sodium salt) was “fail to inhibit atherosclerosis; also recorded: not Able to Abrogate Atherosclerotic Plaque Formation”. Also, the “survival / mortality of mice” value in the data set on ApoE^−/− mice [5] was “survived”.

These data come from US20250171490A1, “DHEA-DERIVED STEROIDS” (DEBRECENI EGYETEM, priority 2022, published 2025).
